Laboratory results as given in the supplement of paper PMC10307832.

Experiments:
Experiment in all cases: relative viability (nuclei count vs DMSO), 5 days (fraction); higher = more cells survive
Carboplatin + Alpelisib = compound: C1CC(C1)(C(=O)O)C(=O)O.[NH2-].[NH2-].[Pt+2] [Carboplatin] + Cc1nc(NC(=O)N2CCC[C@H]2C(N)=O)sc1-c1ccnc(C(C)(C)C(F)(F)F)c1 [Alpelisib] (partner 2 µM)
Method in brief: (§1)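 Values are medians from duplicate plates. Each reflects relative viability, defined as the nuclei count of treated wells over that of vehicle wells. Lung cancer cell lines in 1536-well plates were pin-tool dosed one day after seeding with one drug alone or with a fixed anchor-drug dose plus five library-drug doses (not always all listed) in √10 steps, then fixed, stained and imaged at 4× after 5 days.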

MLN4924 + AZD7762 = compound: NS(=O)(=O)OC[C@@H]1C[C@@H](n2ccc3c(N[C@H]4CCc5ccccc54)ncnc32)C[C@@H]1O [MLN4924] + NC(=O)Nc1cc(-c2cccc(F)c2)sc1C(=O)N[C@H]1CCCNC1 [AZD7762] (partner 0.2 µM)
Method in brief: as §1

GSK126 + Tozasertib = compound: CC[C@H](C)N1C=C(C2=C(C=C(C=C21)C3=CN=C(C=C3)N4CCNCC4)C(=O)NCC5=C(C=C(NC5=O)C)C)C [GSK126] + Cc1cc(Nc2cc(N3CCN(C)CC3)nc(Sc3ccc(NC(=O)C4CC4)cc3)n2)n[nH]1 [Tozasertib] (partner 0.1 µM)
Method in brief: as §1

MLN4924 + Navitoclax = compound: NS(=O)(=O)OC[C@@H]1C[C@@H](n2ccc3c(N[C@H]4CCc5ccccc54)ncnc32)C[C@@H]1O [MLN4924] + CC1(C)CCC(c2ccc(Cl)cc2)=C(CN2CCN(c3ccc(C(=O)NS(=O)(=O)c4ccc(N[C@H](CCN5CCOCC5)CSc5ccccc5)c(S(=O)(=O)C(F)(F)F)c4)cc3)CC2)C1 [Navitoclax] (partner 0.5 µM)
Method in brief: as §1

Cell Line | relative viability (Carboplatin + Alpelisib; first compound 0.08 µM) | relative viability (Carboplatin + Alpelisib; first compound 0.253 µM) | relative viability (Carboplatin + Alpelisib; first compound 0.8 µM) | relative viability (Carboplatin + Alpelisib; first compound 2.53 µM) | relative viability (Carboplatin + Alpelisib; first compound 8 µM) | relative viability (MLN4924 + AZD7762; first compound 0.04 µM) | relative viability (MLN4924 + AZD7762; first compound 0.1265 µM) | relative viability (MLN4924 + AZD7762; first compound 0.4 µM) | relative viability (MLN4924 + AZD7762; first compound 1.265 µM) | relative viability (MLN4924 + AZD7762; first compound 4 µM) | relative viability (GSK126 + Tozasertib; first compound 0.08 µM) | relative viability (GSK126 + Tozasertib; first compound 0.253 µM) | relative viability (GSK126 + Tozasertib; first compound 0.8 µM) | relative viability (GSK126 + Tozasertib; first compound 2.53 µM) | relative viability (GSK126 + Tozasertib; first compound 8 µM) | relative viability (MLN4924 + Navitoclax; first compound 0.04 µM) | relative viability (MLN4924 + Navitoclax; first compound 0.1265 µM) | relative viability (MLN4924 + Navitoclax; first compound 0.4 µM) | relative viability (MLN4924 + Navitoclax; first compound 1.265 µM) | relative viability (MLN4924 + Navitoclax; first compound 4 µM)
NCI-H2085 | 0.998 | 1.05 | 0.907 | 0.882 | 0.756 | 0.989 | 0.972 | 1.07 | 0.941 | 0.603 | 0.918 | 0.734 | 0.76 | 0.72 | 0.654 | 1.25 | 1.1 | 1.12 | 0.733 | 0.366
EKVX | 0.908 | 0.877 | 0.743 | 0.783 | 0.87 | 0.854 | 0.784 | 0.674 | 0.314 | 0.232 | 0.411 | 0.443 | 0.4 | 0.355 | 0.326 | 0.861 | 0.816 | 0.352 | 0.173 | 0.148
NCI-H2405 | 0.925 | 0.734 | 0.671 | 0.763 | 0.639 | 1.05 | 0.964 | 0.557 | 0.225 | 0.245 | 0.767 | 0.71 | 0.752 | 0.697 | 0.608 | 0.874 | 0.702 | 0.273 | 0.13 | 0.171
201T | 1.07 | 1.07 | 1.04 | 1.01 | 0.926 | 0.822 | 0.624 | 0.391 | 0.235 | 0.242 | 0.893 | 1.05 | 0.944 | 0.944 | 0.836 | 1.28 | 1.21 | 1.2 | 0.514 | 0.556
NCI-H1755 | 0.928 | 0.894 | 0.97 | 0.932 | 0.894 | 0.604 | 0.682 | 0.666 | 0.411 | 0.255 | 0.577 | 0.64 | 0.53 | 0.552 | 0.508 | 0.921 | 0.677 | 0.392 | 0.178 | 0.154
NCI-H647 | 1.23 | 1.14 | 1.23 | 1.12 | 0.771 | 0.412 | 0.334 | 0.0972 | 0.0222 | 0.0279 | 0.375 | 0.268 | 0.288 | 0.282 | 0.126 | 0.976 | 0.424 | 0.159 | 0.0575 | 0.0744
NCI-H1651 | 0.846 | 1.1 | 0.907 | 0.876 | 0.573 | 0.495 | 0.53 | 0.47 | 0.436 | 0.158 | 0.717 | 0.728 | 0.864 | 0.57 | 0.537 | 1.1 | 1.08 | 0.492 | 0.267 | 0.142
NCI-H1437 | 0.988 | 0.989 | 0.929 | 0.947 | 0.828 | 0.999 | 0.852 | 0.855 | 0.589 | 0.285 | 0.42 | 0.433 | 0.4 | 0.35 | 0.388 | 1.03 | 0.906 | 0.571 | 0.347 | 0.143
